The values that follow come from patent publication US20040092583A1, “Treatment for inhibiting neoplastic lesions” (priority 2001, published 2004).

Converted amounts (≈) assume the structure as drawn.

Holding throughout (type): cell-based
In assay [1] the test system is PC3 Human Prostate Carcinoma. Put plainly: clonogenic assay (two-layered soft agar), PC3. To be noted: continuous exposure 5-6 days, read-out: IC50 (inhibition of colony formation by 50%). As for the experimental part:
(§1) In vitro cytotoxic activity of extracts containing high concentrations of incensole, furanogermacren and incensole/furanogermacren mixture were determined in several cultured tumour cell lines by performing the […] clonogenic assay. This assay assesses the inhibition of colony formation of tumour stem cells growing in soft agar by cytotoxic agents. Since tumour stem cells are responsible for the proliferate potential and aggressiveness of a tumour cell population, the clonogenic assay is highly predictive of in vivo response.
(§2) The extracts were dissolved in DMSO/water 1:1, prepared as a 30 mg/ml solution and stored at −20° C. until use. […]
(§3) Human tumour cell lines were grown in RPMI 1640 supplemented with 10% fetal calf serum and 2 mM L-glutamine. […] For treatment experiments, exponentially growing cells were trypsinized, washed twice with PBS and the percentage of viable cells was determined by hemocytometer count using trypan blue viable dye exclusion.
(§4) The clonogenic assay was performed according to a modified two-layered soft agar assay. […] Cultures were incubated at 5% CO2 and 37° C. in a humidifled atmosphere for 5-6 days under continuous exposure to drugs and monitored closely for colony growth using an inverted microscope. […]
(§5) If an ID50 or IC70 value could not be determined within the examined dose range, the lowest or highest concentration studies was used for the calculation. […]

For a further assay, the system named is HT29 colon carcinoma. Put plainly: clonogenic assay (two-layered soft agar), HT29. To be noted: Homo sapiens, HT-29, continuous exposure 5-6 days, read-out: IC50 (inhibition of colony formation by 50%). As for the experimental part:
as §1, §2, §3, §4, §5

In assay [2] the test system is Staphylococcus aureus NCTC 10442. As to the kind of experiment: MIC, macrodilution broth procedure. The settings on record: NCTC10442. As for the experimental part:
These studies were performed to determine the minimum inhibitory concentration (MIC) of incensole/furanogermacren mixture. MIC values were determined using a macrodiluton broth procedure based on NCCLS Documents M7-A3 “Methods for dilution anti-microbial susceptibility tests for bacteria that grow aerobically-third edition, approved standard (1993). […] The following organisms were tested: [table]

Assay [3] has as its system Enterococcus feacalis NCTC 775. As to the kind of experiment: MIC, macrodilution broth procedure. To be noted: NCTC775. As for the experimental part:
(§6) These studies were performed to determine the minimum inhibitory concentration (MIC) of incensole/furanogermacren mixture.
(§7) MIC values were determined using a macrodiluton broth procedure based on NCCLS Documents M7-A3 “Methods for dilution anti-microbial susceptibility tests for bacteria that grow aerobically-third edition, approved standard (1993).

Assay [4] deals with Staphylococcus aureus NCTC 6571. As to the kind of experiment: MIC, macrodilution broth procedure. To be noted: NCTC6571. On the procedure: as §6, §7

In the case of `C/C1=C\C[C@]2(C(C)C)CC[C@@](C)(O2)[C@@H](O)CC/C(C)=C/CC1` [Incensole, incensole], the half-inhibitory concentration (IC50) is 6 µg/mL (≈ 19.6 µM) in assay [1] and 70 µg/mL (≈ 228 µM) in the assay on HT29 colon carcinoma. The MIC in assay [2], in assay [3] and in assay [4] was 38 µg/mL (≈ 124 µM) each time.
